Measured values reported in patent US20240261417A1, “SOS1 DEGRADING AGENT AND PREPARATION METHOD THEREFOR AND APPLICATION THEREOF” (SHANGHAI LEADINGTAC PHARMACEUTICAL CO. LTD., priority 2021, published 2024).

Target: T1, KRAS-G12C/SOS1 (Homo sapiens, UniProt Q07889)
T1 construct: purchased Cisbio 63ADKOOOCB16PEG
T1 sequence (Q07889 1-1333): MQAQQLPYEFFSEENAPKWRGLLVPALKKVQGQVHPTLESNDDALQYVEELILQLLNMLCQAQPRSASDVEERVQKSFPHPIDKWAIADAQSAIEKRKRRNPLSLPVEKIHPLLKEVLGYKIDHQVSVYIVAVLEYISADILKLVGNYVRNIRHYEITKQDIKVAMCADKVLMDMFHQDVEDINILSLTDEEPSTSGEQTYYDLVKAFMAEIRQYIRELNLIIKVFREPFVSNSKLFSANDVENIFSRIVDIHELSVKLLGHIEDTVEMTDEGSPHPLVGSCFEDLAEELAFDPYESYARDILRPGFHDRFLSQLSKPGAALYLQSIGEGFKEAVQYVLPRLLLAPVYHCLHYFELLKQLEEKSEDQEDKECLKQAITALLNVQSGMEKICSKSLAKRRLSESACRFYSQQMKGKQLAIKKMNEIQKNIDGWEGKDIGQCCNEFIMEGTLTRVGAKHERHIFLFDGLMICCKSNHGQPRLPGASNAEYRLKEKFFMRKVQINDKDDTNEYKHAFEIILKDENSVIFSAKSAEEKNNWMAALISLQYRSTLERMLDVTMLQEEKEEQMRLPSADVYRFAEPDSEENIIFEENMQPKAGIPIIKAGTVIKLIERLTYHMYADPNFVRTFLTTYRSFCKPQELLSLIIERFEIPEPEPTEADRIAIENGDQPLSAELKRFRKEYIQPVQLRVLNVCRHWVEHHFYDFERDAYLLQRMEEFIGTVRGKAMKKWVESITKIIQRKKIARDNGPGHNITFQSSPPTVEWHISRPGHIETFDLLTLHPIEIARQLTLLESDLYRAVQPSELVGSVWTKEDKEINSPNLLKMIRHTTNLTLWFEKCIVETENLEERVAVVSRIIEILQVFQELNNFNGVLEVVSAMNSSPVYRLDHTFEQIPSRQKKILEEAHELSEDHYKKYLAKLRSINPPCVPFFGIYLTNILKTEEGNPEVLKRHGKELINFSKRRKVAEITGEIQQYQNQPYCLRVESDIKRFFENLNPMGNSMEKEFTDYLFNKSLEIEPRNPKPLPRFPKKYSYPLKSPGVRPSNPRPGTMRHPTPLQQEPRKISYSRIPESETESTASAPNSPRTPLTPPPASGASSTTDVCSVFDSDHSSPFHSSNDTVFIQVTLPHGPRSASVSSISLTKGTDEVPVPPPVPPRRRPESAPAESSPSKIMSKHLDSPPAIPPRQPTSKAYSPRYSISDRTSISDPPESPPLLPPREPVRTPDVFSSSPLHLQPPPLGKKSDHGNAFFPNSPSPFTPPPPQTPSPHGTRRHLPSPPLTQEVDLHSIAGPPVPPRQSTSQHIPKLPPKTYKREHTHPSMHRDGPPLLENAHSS
Assay: KRAS-G12C/SOS1 binding assay (HTRF)
Settings: inhibition of KRAS-G12C/SOS1 binding
How it was run: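 HTRF competition assay with Tag1-SOS1 and Tag2-KRAS-G12C (10 μM GTP). Compounds at 10000 nM-0.04 nM final (0.5% DMSO), incubated 15 min at 25° C, then anti-tag Tb3+/XL665 antibodies added for 3 h on ice. The 665/620 nm ratio was compared with control and IC50 derived by nonlinear fit.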

IC50 [µM]	SMILES
0.015 to 0.03	COc1cc2nc(C)nc(N[C@H](C)c3cc(N)cc(C(F)(F)F)c3)c2cc1[C@H]1CC[C@H](C(=O)N2CCN(CCC3CCC4(CC3)CCN(C(=O)c3ccc(Cl)c(N5CCC(=O)NC5=O)c3)CC4)CC2)CC1 [Example 1, 1-(5-(9-(2-(4-((1R,4R)-4-(4-(((R)-1-(3-amino-5-(trifluoromethyl)phenyl)ethyl)amino)-7-methoxy-2-methylquinazolin-6-yl)cyclohexane-1-carbonyl)piperazin-1-yl)ethyl)-3-azaspiro[5.5]undecane-3-carbonyl)-2-chlorophenyl)dihydropyrimidine-2,4(1H,3H)-dione]
≤ 0.015	COc1cc2nc(C)nc(N[C@H](C)c3cc(N)cc(C(F)(F)F)c3)c2cc1[C@H]1CC[C@H](C(=O)N2CCN(CC3CCC4(CC3)CCN(C(=O)c3ccc(Cl)c(N5CCC(=O)NC5=O)c3)CC4)CC2)CC1 [Example 2, 1-(5-(9-((4-((1R,4R)-4-(4-(((R)-1-(3-amino-5-(trifluoromethyl)phenyl)ethyl)amino)-7-methoxy-2-methylquinazolin-6-yl)cyclohexane-1-carbonyl)piperazin-1-yl)methyl)-3-azaspiro[5.5]undecane-3-carbonyl)-2-chlorophenyl)dihydropyrimidine-2,4(1H,3H)-dione]
